This note sets out measurements from ChEMBL document CHEMBL1137966, “Thrombin inhibitors built on an azaphenylalanine scaffold” (Bioorg Med Chem Lett, 2004).

The target in one experiment is Serine protease 1 (Homo sapiens, UniProt P07477). Briefly: In vitro inhibition of trypsin.
A further experiment concerns the target Coagulation factor X (Homo sapiens, UniProt P00742). The experiment can be described thus: In vitro inhibition of Coagulation factor X.
For the next experiment, the target named is Prothrombin (Homo sapiens, UniProt P00734).

Chain of Serine protease 1 (P07477 whole entry): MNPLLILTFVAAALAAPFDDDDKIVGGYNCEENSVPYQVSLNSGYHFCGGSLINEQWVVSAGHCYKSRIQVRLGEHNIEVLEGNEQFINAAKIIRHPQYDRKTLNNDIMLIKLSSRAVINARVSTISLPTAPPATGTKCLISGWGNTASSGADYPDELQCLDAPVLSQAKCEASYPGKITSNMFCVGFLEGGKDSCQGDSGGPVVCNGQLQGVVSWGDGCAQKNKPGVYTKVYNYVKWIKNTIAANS
Chain of Coagulation factor X (P00742 41-179 limits assumed): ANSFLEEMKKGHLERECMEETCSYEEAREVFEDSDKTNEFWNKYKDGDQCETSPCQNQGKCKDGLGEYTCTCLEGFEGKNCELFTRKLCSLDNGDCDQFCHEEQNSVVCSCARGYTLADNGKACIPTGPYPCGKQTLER
Chain of Coagulation factor X (P00742 235-488 limits assumed): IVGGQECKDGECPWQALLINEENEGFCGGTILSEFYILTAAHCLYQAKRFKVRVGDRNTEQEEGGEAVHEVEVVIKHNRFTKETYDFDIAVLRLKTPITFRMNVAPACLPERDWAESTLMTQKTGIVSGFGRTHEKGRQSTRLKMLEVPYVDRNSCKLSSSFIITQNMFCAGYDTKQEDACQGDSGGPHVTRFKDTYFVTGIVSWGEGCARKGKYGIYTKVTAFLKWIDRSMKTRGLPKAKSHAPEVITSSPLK
Description for Prothrombin: In vitro inhibition of human alpha-thrombin

In general, Ki refers to the dissociation constant of the complex between target and ligand, obtained from inhibition or displacement. With `CC1CCCCN1C(=O)N(Cc1cccc(C(=N)NO)c1)NS(=O)(=O)c1ccc2ccccc2c1` (stereo unspecified), the Ki stood at 67 µM at Serine protease 1 and 5.4 µM at Coagulation factor X.
Turning to `COc1ccc2cc(S(=O)(=O)NN(Cc3cccc(C(=N)NO)c3)C(=O)N3CCCCCC3)ccc2c1`, the Ki on Serine protease 1 worked out at 17 µM; at Coagulation factor X, 103 µM.
For `N=C(N)c1ccc(CN(NS(=O)(=O)c2ccc3ccccc3c2)C(=O)N2CCCCCC2)cc1`, in that order: 10 µM and 69 µM.
Take `COc1ccc2cc(S(=O)(=O)NN(Cc3cccc(C(=N)N)c3)C(=O)N3CCCCCC3)ccc2c1`: the Ki turned out to be 0.053 µM on Serine protease 1 and 3 µM at Coagulation factor X.
Regarding `N/C(=N\O)c1ccc(CN(NS(=O)(=O)c2ccc3ccccc3c2)C(=O)N2CCCCCC2)cc1`, the values for the Ki at Prothrombin, at Serine protease 1 and on Coagulation factor X were 210 nM, 13 µM and greater than 75 µM, respectively.
For `CC1CCN(C(=O)N(Cc2cccc(C(=N)NO)c2)NS(=O)(=O)c2ccc3ccccc3c2)CC1`, the inhibition constant Ki was greater than 68 µM on Serine protease 1 and greater than 75 µM at Coagulation factor X.
Turning to `N=C(N)c1ccc(CN(NS(=O)(=O)c2ccc(-c3ccccc3)cc2)C(=O)N2CCCCCC2)cc1`, the Ki at Prothrombin came out at 150 nM; on Serine protease 1 it was 23 µM.
Consider `COc1ccc2cc(S(=O)(=O)NN(Cc3ccc(C(=N)NO)cc3)C(=O)N3CCC(C)CC3)ccc2c1`, for which the inhibitory constant (Ki) on Prothrombin is 380 nM; at Serine protease 1, greater than 68 µM; on Coagulation factor X it was greater than 75 µM.
As to `N/C(=N\O)c1ccc(CN(NS(=O)(=O)c2ccc(-c3ccccc3)cc2)C(=O)N2CCCCCC2)cc1`, the Ki on Prothrombin is 1600 nM; on Serine protease 1, greater than 400 µM.
Turning to `CC1CCCCN1C(=O)N(Cc1ccc(C(=N)NO)cc1)NS(=O)(=O)c1ccc2ccccc2c1` (stereo unspecified), the figures for the inhibition constant Ki at Prothrombin, on Serine protease 1 and on Coagulation factor X were 430 nM, 45 µM and greater than 75 µM, respectively.
In the case of `COc1ccc2cc(S(=O)(=O)NN(Cc3ccc(C(=N)N)cc3)C(=O)N3CCC(C)CC3)ccc2c1`, the figures for the Ki at Prothrombin, at Serine protease 1 and at Coagulation factor X were 45 nM, 18 µM and greater than 75 µM, respectively.
On to `N/C(=N\O)c1cccc(CN(NS(=O)(=O)c2ccc3ccccc3c2)C(=O)N2CCCCCC2)c1`, for which the results for the inhibitory constant (Ki) on Serine protease 1 and at Coagulation factor X were 32 µM and greater than 75 µM, respectively.
Consider `N=C(N)c1ccc(CN(NS(=O)(=O)c2ccc3ccccc3c2)C(=O)N2CCCCC2)cc1`, for which the Ki on Prothrombin came to 95 nM; on Serine protease 1, 13 µM; at Coagulation factor X, 66 µM.
Take `N=C(N)c1cccc(CN(NS(=O)(=O)c2ccc3ccccc3c2)C(=O)N2CCCCCC2)c1`: the inhibitory constant (Ki) at Serine protease 1 was found to be 0.14 µM; at Coagulation factor X, 3.9 µM.
As to `CC1CCN(C(=O)N(Cc2ccc(C(=N)NO)cc2)NS(=O)(=O)c2ccc3ccccc3c2)CC1`, the Ki at Prothrombin is 770 nM; on Serine protease 1, greater than 68 µM; at Coagulation factor X, greater than 75 µM.
Turning to `N/C(=N\O)c1ccc(CN(NS(=O)(=O)c2ccc3ccccc3c2)C(=O)N2CCCCC2)cc1`, the Ki at Serine protease 1 was greater than 68 µM; on Coagulation factor X, greater than 75 µM.
As for `CC1CCCCN1C(=O)N(Cc1ccc(C(=N)N)cc1)NS(=O)(=O)c1ccc2ccccc2c1` (stereo unspecified), the Ki on Prothrombin came to 85 nM; at Serine protease 1 it was 26 µM; on Coagulation factor X, 53 µM.
In the case of `CC1CCN(C(=O)N(Cc2cccc(C(=N)N)c2)NS(=O)(=O)c2ccc3ccccc3c2)CC1`, the figures for the inhibitory constant (Ki) on Serine protease 1 and on Coagulation factor X were 0.11 µM and 5.3 µM, respectively.
Turning to `COc1ccc2cc(S(=O)(=O)NN(Cc3cccc(C(=N)NO)c3)C(=O)N3CCCCC3C)ccc2c1` (stereo unspecified), the inhibition constant (Ki) is 4200 nM at Prothrombin, 47 µM on Serine protease 1 and 111 µM on Coagulation factor X.
